Assay results published in patent US20060159666A1, “Method of potentiating inflammatory and immune modulation for cell and drug therapy” (priority 2004, published 2006).

Tests used:
HUCBCs [1] = assay: 96-Chemotx migration assay of HUCBCs to recombinant chemoattractants; type: cell-based, human; conditions: MCP-1 5-30 ng/mL, IL-3 1-10 ng/mL, TPO 10-40 ng/mL; 4 hr; ATP luminescence
Description: HUCBCs were prepared as described above and cultured for 24 hr before use. The 96-Chemotx chambers (NeuroProbe, Gaithersburg, Md.) were used for the migration assays. The chamber is a 96-well plate consisting of bottom wells to hold the unknowns or chemoattractant and a top plate, which is a polycarbonate membrane with 5 μm pore size. […] All were pipetted (300 μL) directly into the bottom wells, in triplicate, after which the top plate was securely attached. The HUCBCs were pipetted directly into each top well at a concentration of 62,000 cells per 25 μL. The migration chambers were then placed in a cell culture incubator at 37° C. with 5% CO2 for 4 hr. The top plates were removed and the bottom plates were then centrifuged (300 rpm for 10 min) to force cells to the bottom. Half the medium (150 μL) was then removed and a cell viability assay (CellTiter-Glo Kit, Promega), which is based on the ability of live cells to incorporate adenosine triphosphate (ATP), was used to determine the numbers of cells that had migrated. The migration plate was read in an automated plate reader (BioTek) set to the appropriate luminescence.

HUCBCs [2] = assay: 96-Chemotx migration assay of HUCBCs to MCAO brain tissue extracts; type: cell-based, human; conditions: positive control; 4 hours
From the text: In determining the time course of HUCBC migration into brain after a stroke, an ex vivo experimental approach was employed. Male Sprague Dawley rats under a permanent middle cerebral artery occlusion (MCAO); a nylon filament was threaded through the internal carotid artery to the origin of the MCA and permanently ligated in place. At 4, 6, 12, 24, 48, 72 hrs and 1 week after ischemia the animals were euthanized and the brains removed within two min, immediately flash-frozen and then stored at −80° C. until needed. The frozen brains were semi-thawed and kept cold. The striatum, hippocampus, and the cortex were dissected from the sides both ipsilateral and contralateral to the occlusion. The same dissections were performed for sham surgery and normal rats. Tissue from each of the conditions were pooled, and kept on ice in clear Dulbecco's modified Eagle's medium (DMEM, Invitrogen, Carlsbad, Calif.). […]
The cryopreserved HUCBCs were thawed and transferred into clear DMEM with 5% FBS and 1 μL/1 mL of Gentamicin (Sigma, St. Louis). […] Cord blood cells were then plated in low adherence 6 well culture dishes (Corning, Corning, N.Y.) for 24 hrs in a water jacket incubator set at 37° C. and with 5% CO2 After 24 hrs cells were lifted by gentle pipetting, placed in a 15 mL tube, centrifuged, resuspended in 1 mL of media without FBS, and viability assessed using the trypan blue dye exclusion method. […]

HUCBCs [3] = assay: Human cytokine antibody array of HUCBC conditioned medium; type: cell-based; conditions: Ex Vivo 10 medium; IL-3 5 ng/mL or TPO 25 ng/mL for 5 d; 42-cytokine array
Description: The mononuclear fraction of the HUCBCs was obtained from Saneron CCEL Therapeutics, Inc. (Oldsmar, Fla.). Frozen samples were thawed in 10 mL of DMEM (Gibco), supplemented with 5% fetal bone serum (FBS, Gibco) and gentamicin (50 μg/mL, Sigma), or with Ex Vivo 10 media with gentamicin (50 μg/mL, Sigma). After centrifugation for 10 min at 200 rpm, the supernatant was removed and the cells were resuspended in 1 mL of the same medium. The viability of all samples ranged from 73% to 95% as determined by the ability to exclude trypan blue dye. Cells were then cultured for 3 to 14 d for cytokine arrays and ELISA assays; cells cultured in Ex Vivo 10 media were further stimulated with IL-3, TPO or both.
In order to address this, we used human cytokine arrays to establish whether the HUCBCs secreted these proteins. To determine the cytokines that HUCBCs released during culture, we used a TranSignal human cytokine antibody array (Panomics, Inc., Redwood City, Calif.), which simultaneously profiles either 23 (Array 1.0) or 42 (Array 3.0) cytokines/assay at the protein level. First, we examined whether cytokine production increased as a function of seeding density. The HUCBC were cultured at concentrations of 5, 10, or 30×10^6 per 5 mL of serum free DMEM with Gentamicin (50 μg/mL) for 3 d. […]

Substance | HUCBC migration to chemoattractant compared to controls (DMEM and PBS) (HUCBCs [1]) | HUCBC migration to SDF-1 chemoattractant compared to all other conditions (HUCBCs [2]) | cytokine release from HUCBCs after stimulation (HUCBCs [3])
MCP-1: human recombinant MCP-1 used as chemoattractant | Significantly more HUCBCs migrated |  | 
SDF-1: Stromal derived factor 1, chemoattractant used as positive control |  | Significantly more HUCBCs | 
TPO: thrombopoietin, factor known to stimulate hematopoietic cells | Significantly more HUCBCs migrated |  | a somewhat different profile of protein release
